Results: paper PMC3125149, “SCYX-7158, an Orally-Active Benzoxaborole for the Treatment of Stage 2 Human African Trypanosomiasis” (PLoS Neglected Tropical Diseases, 2011)
Where two headings read alike, the source gives them in different places.

Legend:
[1] = tested on: T. b. brucei EATRO 110 strain; test: Efficacy in the mouse model for acute HAT; type: in vivo
Method: For efficacy studies against acute infections, groups of 3–5 female Swiss Webster mice (Ace Animals, Boyertown, PA) were injected intraperitoneally (i.p.) with freshly drawn infected rat blood containing 2.5×10^5 trypanosomes (T. b. brucei EATRO 110 strain). The infection was allowed to progress for 24 h before treatment. Test compound was then given daily by bolus i.p. injection or oral gavage. Oxaborole compounds were formulated in 2% ethanol/5% dextrose and were given at a dose volume of 200 µL (containing 1.25 to 50 mg/kg) for a 25 g animal. Animals were monitored daily for signs of compound toxicity and clinical signs of trypanosomiasis for a period of 30 days. Mice were checked for parasitemia once per week by microscopic examination of smears prepared from the tail vein blood of animals. Animals remaining parasite free for more than 30 days beyond the end of the treatment period were considered cured. Control untreated animals typically succumbed to the infection within 4–5 days following i.p. inoculation with parasites.

[2] = Pharmacokinetics in uninfected rats; type: in vivo, rat; settings: male, Sprague-Dawley, rat
Method: The blood distribution, CNS disposition and pharmacokinetics of SCYX-7158 were evaluated in infected or non-infected rodents following intravenous or oral administration of compounds. Pharmacokinetics and bioavailability of SCYX-7158 were also evaluated in non-infected beagle dogs and cynomolgus monkeys. In-life phases of non-infected rodent studies were performed at Vivisource (Waltham, MA); studies in non-naïve cynomolgus monkeys were performed by SNBL USA (Everett, WA). Male CD-1 mice (∼25 g), male Sprague-Dawley rats (∼225 g), or male cynomolgus monkeys (∼3–5 kg) were administered test article by either bolus intravenous injection (IV) or oral gavage. Animals in the IV groups received a single 2 mg/kg IV dose. Animals received oral doses of test articles as either single or twice daily doses ranging from 8 mg/kg to 50 mg/kg. All doses were administered as clear colorless solutions in either 50% (v/v) PEG 400: 20% (v/v) ethanol: 30% (v/v) carboxymethylcellulose (0.5% w/v in sterile water for injection) or 2% (v/v) ethanol: 5% (w/v) dextrose in sterile water for injection. […] For pharmacokinetic analysis, blood samples were collected from mice via cardiac puncture under terminal anaesthesia. Serial blood samples were collected from rats via a vascular access port located in the lateral saphenous vein. Mice and rats were euthanized in a CO2 chamber before collection of terminal blood samples or brain tissue. Blood samples were collected into polypropylene tubes containing K2EDTA anticoagulant and stored on ice until centrifuged for the preparation of plasma. Plasma was stored at −70°C. Whole brains were collected following decapitation, blotted dry, placed into polypropylene containers and then immediately frozen at approximately −70°C. CSF was collected from rats via cisterna magna puncture, placed in sterile polypropylene tubes, and stored at approximately −70°C. […] Treated samples were gently mixed at room temperature for 10 min, and then centrifuged at approximately 3000×g for 15 min at 15°C. The supernatants were transferred to 96-well plates or HPLC vials for analysis by LC-MS/MS. Pharmacokinetic parameters were calculated from composite mean plasma or tissue data using non-compartmental (oral and intravenous routes) and bi-exponential (intravenous route) analyses in Microsoft Excel.

Structure (SMILES): CC1(C)OB(O)c2cc(NC(=O)c3ccc(F)cc3C(F)(F)F)ccc21 [SCYX-7158]
- % Cured ([1]; 1.25 mg/kg BID, 4 days, PO): 0%
- Avg. Days Parasite-Free ([1]; 1.25 mg/kg BID, 4 days, PO): 8 days
- Cured/Total ([1]; 1.25 mg/kg BID, 4 days, PO): 0/5
- % Cured ([1]; 1.25 mg/kg QD, 4 days, PO): 0%
- Avg. Days Parasite-Free ([1]; 1.25 mg/kg QD, 4 days, PO): 4.4 days
- Cured/Total ([1]; 1.25 mg/kg QD, 4 days, PO): 0/5
- % Cured ([1]; 2.5 mg/kg BID, 4 days, PO): 100%
- Avg. Days Parasite-Free ([1]; 2.5 mg/kg BID, 4 days, PO): >30 days
- Cured/Total ([1]; 2.5 mg/kg BID, 4 days, PO): 5/5
- % Cured ([1]; 2.5 mg/kg QD, 4 days, PO): 0%
- Avg. Days Parasite-Free ([1]; 2.5 mg/kg QD, 4 days, PO): 8.4 days
- Cured/Total ([1]; 2.5 mg/kg QD, 4 days, PO): 0/5
- % Cured ([1]; 5 mg/kg BID, 4 days, PO): 100%
- Avg. Days Parasite-Free ([1]; 5 mg/kg BID, 4 days, PO): >30 days
- Cured/Total ([1]; 5 mg/kg BID, 4 days, PO): 5/5
- % Cured ([1]; 5 mg/kg QD, 1 day, IP): 0%
- Avg. Days Parasite-Free ([1]; 5 mg/kg QD, 1 day, IP): 6 days
- Cured/Total ([1]; 5 mg/kg QD, 1 day, IP): 0/3
- % Cured ([1]; 5 mg/kg QD, 4 days, PO): 100%
- Avg. Days Parasite-Free ([1]; 5 mg/kg QD, 4 days, PO): >30 days
- Cured/Total ([1]; 5 mg/kg QD, 4 days, PO): 5/5
- % Cured ([1]; 10 mg/kg BID, 4 days, PO): 100%
- Avg. Days Parasite-Free ([1]; 10 mg/kg BID, 4 days, PO): >30 days
- Cured/Total ([1]; 10 mg/kg BID, 4 days, PO): 5/5
- % Cured ([1]; 10 mg/kg QD, 1 day, IP): 0%
- Avg. Days Parasite-Free ([1]; 10 mg/kg QD, 1 day, IP): 9.3 days
- Cured/Total ([1]; 10 mg/kg QD, 1 day, IP): 0/3
- % Cured ([1]; 10 mg/kg QD, 4 days, PO): 100%
- Avg. Days Parasite-Free ([1]; 10 mg/kg QD, 4 days, PO): >30 days
- Cured/Total ([1]; 10 mg/kg QD, 4 days, PO): 5/5
- % Cured ([1]; 25 mg/kg QD, 1 day, IP): 100%
- Avg. Days Parasite-Free ([1]; 25 mg/kg QD, 1 day, IP): >30 days
- Cured/Total ([1]; 25 mg/kg QD, 1 day, IP): 3/3
- % Cured ([1]; 25 mg/kg QD, 1 day, PO): 33%
- Avg. Days Parasite-Free ([1]; 25 mg/kg QD, 1 day, PO): 8.3 days
- Cured/Total ([1]; 25 mg/kg QD, 1 day, PO): 1/3
- Kp ([2]; brain/plasma, 25 mg/kg oral, read-out: brain to plasma AUC0–24 h ratio): 0.44
- CL/F ([2]; plasma, 25 mg/kg oral): 1.53 mL/min/kg
- Cmax ([2]; 25 mg/kg oral (nominal), plasma, read-out: Cmax): 18200 ng/mL
- AUC(0-t) ([2]; 25 mg/kg oral, CSF, read-out: AUC0–24 h in the CSF): 14.6 µg·h/mL
- Cmax ([2]; 25 mg/kg oral, CSF, read-out: Cmax in the CSF): 1080 ng/mL
- AUC(0-t) ([2]; 25 mg/kg oral, brain, read-out: AUC0–24 h in the brain): 129 µg·h/mL
- Cmax ([2]; 25 mg/kg oral, brain, read-out: Cmax in the brain): 8500 ng/mL
- Tmax ([2]; 25 mg/kg oral, plasma): 8 h
- AUC(0-t) ([2]; 25 mg/kg oral, plasma, read-out: AUC0–24 h): 291 µg·h/mL
- Cmax ([2]; oral dose of 10 mg/kg SCYX-7158, plasma, read-out: Cmax): 14300 ng/mL
